Source: publication PMC6801739, “Antitumor Activity of a Novel Tyrosine Kinase Inhibitor AIU2001 Due to Abrogation of the DNA Damage Repair in Non-Small Cell Lung Cancer Cells” (International Journal of Molecular Sciences, 2019)

Legend:
FLT4 [1] = biological target: T1, FLT4 (Homo sapiens, UniProt P35916); test: Kinase profiling at 10 μM (Eurofins); type: biochemical; conditions: read-out: Inhibitory activity
T1 construct: purchased Eurofins Pharma Discovery (KinaseProfiler); IC50 values by Reaction Biology Corp

IGF-1R = biological target: T2, IGF-1R (Homo sapiens, UniProt P08069); test: Kinase profiling at 10 μM (Eurofins); type: biochemical; conditions: read-out: Inhibitory activity
T2 construct: purchased Eurofins Pharma Discovery (KinaseProfiler); IC50 values by Reaction Biology Corp

MV4-11 cells = test: Immunoblot of phospho-STAT5; type: cell-based, human; conditions: 1 h
Protocol: (§1) Cell lysates were prepared by extracting proteins with TNN buffer (40 mM Tris-Cl pH 8.0, 0.2% NP-40, 120 mM NaCl) or radioimmunoprecipitation assay (RIPA) lysis buffer (Millipore, Billerica MA, USA) supplemented with a protease inhibitor cocktail (Thermo Fisher Scientific, Rockford, IL, USA). Equal amounts of proteins were separated using SDS-PAGE on 8–13% gels, and transferred to nitrocellulose membranes (Bio-Rad, Hercules, CA, USA). The membranes were blocked with 5% skim milk in Tris-buffered saline-Tween 20 (TBST) (150 mM NaCl, 10 mM Tris, 0.2% Tween20), followed by overnight incubation with primary antibodies at 4 °C. The blots were developed using peroxidase-conjugated secondary antibody and the immunoreactive proteins were visualized using enhanced chemiluminescence (ECL) reagents, according to the manufacturer’s recommendations (Amersham, GE Healthcare, Buckingamshire, UK). The protein bands were visualized using a digital imaging system (ImageQuant LAS 4000 mini; GE Healthcare, UK). The protein levels were analyzed using Image J software (National Institutes of Health, Bethesda, MD, USA). Experiments were repeated at least thrice.
(§2) Supplementary Figure 3. AIU2001 inhibited downstream effector STAT5 of FLT3 signaling in
(§3) FLT3(ITD)-AML cells. […]
(§4) AIU2001 for 1h. Cell lysates were prepared and analyzed using immunoblotting for detecting […]

Molm-13 cells = test: Immunoblot of phospho-STAT5; type: cell-based, human; conditions: 1 h
Protocol: as §1, §2, §3, §4

cSRC = biological target: T3, cSRC (Homo sapiens, UniProt P12931); test: Kinase profiling at 10 μM (Eurofins); type: biochemical; conditions: read-out: Inhibitory activity
T3 construct: purchased Eurofins Pharma Discovery (KinaseProfiler); IC50 values by Reaction Biology Corp

FLT3 = biological target: T4, FLT3 (Homo sapiens, UniProt P36888); test: In vitro kinase assay, IC50 (Reaction Biology Corp.); type: biochemical
T4 construct: purchased Eurofins Pharma Discovery (KinaseProfiler); IC50 values by Reaction Biology Corp

WEE1 = biological target: T5, WEE1 (Homo sapiens, UniProt P30291); test: Kinase profiling at 10 μM (Eurofins); type: biochemical; conditions: read-out: Inhibitory activity
T5 construct: purchased Eurofins Pharma Discovery (KinaseProfiler); IC50 values by Reaction Biology Corp

CDK2/cyclinA = biological target: T6, CDK2/cyclinA (Homo sapiens, UniProt P24941); test: Kinase profiling at 10 μM (Eurofins); type: biochemical; conditions: read-out: Inhibitory activity
T6 construct: purchased Eurofins Pharma Discovery (KinaseProfiler); IC50 values by Reaction Biology Corp

c-KIT [2] = biological target: T7, c-KIT (Homo sapiens, UniProt P10721); test: Kinase profiling at 10 μM (Eurofins); type: biochemical; conditions: read-out: Inhibitory activity
T7 construct: purchased Eurofins Pharma Discovery (KinaseProfiler); IC50 values by Reaction Biology Corp

TAK1 = biological target: T8, TAK1 (Homo sapiens, UniProt O43318); test: Kinase profiling at 10 μM (Eurofins); type: biochemical; conditions: read-out: Inhibitory activity
T8 construct: purchased Eurofins Pharma Discovery (KinaseProfiler); IC50 values by Reaction Biology Corp

FLT4 [3] = biological target: T1, FLT4; test: In vitro kinase assay, IC50 (Reaction Biology Corp.); type: biochemical
EGFR(T790M,L858R) = biological target: T9, EGFR(T790M,L858R) (Homo sapiens, UniProt P00533, L858R/T790M); test: Kinase profiling at 10 μM (Eurofins); type: biochemical; conditions: read-out: Inhibitory activity
T9 construct: purchased Eurofins Pharma Discovery (KinaseProfiler); IC50 values by Reaction Biology Corp

Met = biological target: T10, Met (Homo sapiens, UniProt P08581); test: Kinase profiling at 10 μM (Eurofins); type: biochemical; conditions: read-out: Inhibitory activity
T10 construct: purchased Eurofins Pharma Discovery (KinaseProfiler); IC50 values by Reaction Biology Corp

c-KIT (D816H) = biological target: T11, c-KIT (D816H) (Homo sapiens, UniProt P10721, D816H); test: Kinase profiling at 10 μM (Eurofins); type: biochemical; conditions: read-out: Inhibitory activity
T11 construct: purchased Eurofins Pharma Discovery (KinaseProfiler); IC50 values by Reaction Biology Corp

ROS = biological target: T12, ROS (Homo sapiens, UniProt P08922); test: Kinase profiling at 10 μM (Eurofins); type: biochemical; conditions: read-out: Inhibitory activity
T12 construct: purchased Eurofins Pharma Discovery (KinaseProfiler); IC50 values by Reaction Biology Corp

HIPK2 = biological target: T13, HIPK2 (Homo sapiens, UniProt Q9H2X6); test: Kinase profiling at 10 μM (Eurofins); type: biochemical; conditions: read-out: Inhibitory activity
T13 construct: purchased Eurofins Pharma Discovery (KinaseProfiler); IC50 values by Reaction Biology Corp

CK1γ1 = biological target: T14, CK1γ1 (Homo sapiens, UniProt Q9HCP0); test: Kinase profiling at 10 μM (Eurofins); type: biochemical; conditions: read-out: Inhibitory activity
T14 construct: purchased Eurofins Pharma Discovery (KinaseProfiler); IC50 values by Reaction Biology Corp

FGFR1 = biological target: T15, FGFR1 (Homo sapiens, UniProt P11362); test: Kinase profiling at 10 μM (Eurofins); type: biochemical; conditions: read-out: Inhibitory activity
T15 construct: purchased Eurofins Pharma Discovery (KinaseProfiler); IC50 values by Reaction Biology Corp

PDK1 = biological target: T16, PDK1 (Homo sapiens, UniProt O15530); test: Kinase profiling at 10 μM (Eurofins); type: biochemical; conditions: read-out: Inhibitory activity
T16 construct: purchased Eurofins Pharma Discovery (KinaseProfiler); IC50 values by Reaction Biology Corp

c-KIT [4] = biological target: T7, c-KIT; test: In vitro kinase assay, IC50 (Reaction Biology Corp.); type: biochemical
A549 xenografts = test: A549 tumor xenograft mouse model; type: in vivo, BALB/c nu/nu mice; conditions: 20 mg/kg i.p. once per two or three days, five times
Protocol: We next determined whether the antitumor effect associated with in vitro AIU2001 treatment could be translated into an in vivo xenograft mouse model. Mice were subcutaneously (s.c.) implanted with A549 cells in the right hind leg. When the tumors were palpable (average […]: 150 mm^3; 14days post-implantation), mice were intraperitoneally (i.p.) administered 20 mg/kg AIU2001 or DMSO once per two or three days for five times in total. […] At necropsy, the average tumor weight of mice treated with AIU2001 or DMSO was 1.2 g or 2.8 g, respectively (Figure 2B,C).
Figure 2 AIU2001 inhibited tumor growth of A549 xenografts in nude mice. (A) A549 cells were s.c. injected into the thigh of the right hind leg of BALB/c nu/nu mice (n = 4/group). Two weeks after tumor cell injection, AIU2001 (20 mg/kg) or DMSO was administered (i.p.) once per two or three days for five times in total. The longest (L) and shortest (W) tumor axes were measured, and tumor volume (mm^3) was calculated as L × W^2/2. The data shown represent the average tumor volume (* p < 0.05). (B) The weight of the resected tumors was measured at the end of the experiment (*** p < 0.001). (C) Image of resected tumors from mice. (D) The body weights of A549 tumor xenograft mice were determined twice weekly during the experiments.
A549 human lung cancer cell xenografts were initially established by s.c. implanting 1 × 10^6 cultured cells into the thigh of the right hind leg of six week old mice. When tumor volumes had reached approximately 150 mm^3, AIU2001 ([…]) was administered i.p. once per two or three days for five times in total. All animal experiments were reviewed and approved by the Institutional Animal Care & Use Committee of Korea Institute of Radiological and Medical Sciences (kirams2018-0063, 6 December 2018).
Two axes of the tumor (L, longest axis; W, shortest axis) were measured twice per week after irradiation using Vernier calipers. Tumor volume was calculated as (L × W^2)/2 (mm^3).

EPHB4 = biological target: T17, EPHB4 (Homo sapiens, UniProt P54760); test: Kinase profiling at 10 μM (Eurofins); type: biochemical; conditions: read-out: Inhibitory activity
T17 construct: purchased Eurofins Pharma Discovery (KinaseProfiler); IC50 values by Reaction Biology Corp

ZAP-70 = biological target: T18, ZAP-70 (Homo sapiens, UniProt P43403); test: Kinase profiling at 10 μM (Eurofins); type: biochemical; conditions: read-out: Inhibitory activity
T18 construct: purchased Eurofins Pharma Discovery (KinaseProfiler); IC50 values by Reaction Biology Corp
T18 sequence (P43403 whole entry): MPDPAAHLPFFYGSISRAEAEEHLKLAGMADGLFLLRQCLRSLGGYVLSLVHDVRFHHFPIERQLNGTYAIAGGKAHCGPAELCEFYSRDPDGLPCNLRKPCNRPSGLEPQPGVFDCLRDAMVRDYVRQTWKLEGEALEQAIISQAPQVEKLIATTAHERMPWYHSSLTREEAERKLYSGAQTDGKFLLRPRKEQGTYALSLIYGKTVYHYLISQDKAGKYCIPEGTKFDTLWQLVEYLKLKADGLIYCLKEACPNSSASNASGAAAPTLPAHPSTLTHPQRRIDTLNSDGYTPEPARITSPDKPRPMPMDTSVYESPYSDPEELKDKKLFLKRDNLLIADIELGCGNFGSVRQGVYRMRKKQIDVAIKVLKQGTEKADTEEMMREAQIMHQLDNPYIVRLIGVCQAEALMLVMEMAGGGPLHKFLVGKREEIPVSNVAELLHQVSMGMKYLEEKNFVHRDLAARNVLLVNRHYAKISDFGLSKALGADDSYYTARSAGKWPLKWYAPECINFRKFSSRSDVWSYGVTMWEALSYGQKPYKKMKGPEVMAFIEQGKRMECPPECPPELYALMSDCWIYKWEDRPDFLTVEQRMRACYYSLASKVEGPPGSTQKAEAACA

T1 sequence (P35916 25-1363): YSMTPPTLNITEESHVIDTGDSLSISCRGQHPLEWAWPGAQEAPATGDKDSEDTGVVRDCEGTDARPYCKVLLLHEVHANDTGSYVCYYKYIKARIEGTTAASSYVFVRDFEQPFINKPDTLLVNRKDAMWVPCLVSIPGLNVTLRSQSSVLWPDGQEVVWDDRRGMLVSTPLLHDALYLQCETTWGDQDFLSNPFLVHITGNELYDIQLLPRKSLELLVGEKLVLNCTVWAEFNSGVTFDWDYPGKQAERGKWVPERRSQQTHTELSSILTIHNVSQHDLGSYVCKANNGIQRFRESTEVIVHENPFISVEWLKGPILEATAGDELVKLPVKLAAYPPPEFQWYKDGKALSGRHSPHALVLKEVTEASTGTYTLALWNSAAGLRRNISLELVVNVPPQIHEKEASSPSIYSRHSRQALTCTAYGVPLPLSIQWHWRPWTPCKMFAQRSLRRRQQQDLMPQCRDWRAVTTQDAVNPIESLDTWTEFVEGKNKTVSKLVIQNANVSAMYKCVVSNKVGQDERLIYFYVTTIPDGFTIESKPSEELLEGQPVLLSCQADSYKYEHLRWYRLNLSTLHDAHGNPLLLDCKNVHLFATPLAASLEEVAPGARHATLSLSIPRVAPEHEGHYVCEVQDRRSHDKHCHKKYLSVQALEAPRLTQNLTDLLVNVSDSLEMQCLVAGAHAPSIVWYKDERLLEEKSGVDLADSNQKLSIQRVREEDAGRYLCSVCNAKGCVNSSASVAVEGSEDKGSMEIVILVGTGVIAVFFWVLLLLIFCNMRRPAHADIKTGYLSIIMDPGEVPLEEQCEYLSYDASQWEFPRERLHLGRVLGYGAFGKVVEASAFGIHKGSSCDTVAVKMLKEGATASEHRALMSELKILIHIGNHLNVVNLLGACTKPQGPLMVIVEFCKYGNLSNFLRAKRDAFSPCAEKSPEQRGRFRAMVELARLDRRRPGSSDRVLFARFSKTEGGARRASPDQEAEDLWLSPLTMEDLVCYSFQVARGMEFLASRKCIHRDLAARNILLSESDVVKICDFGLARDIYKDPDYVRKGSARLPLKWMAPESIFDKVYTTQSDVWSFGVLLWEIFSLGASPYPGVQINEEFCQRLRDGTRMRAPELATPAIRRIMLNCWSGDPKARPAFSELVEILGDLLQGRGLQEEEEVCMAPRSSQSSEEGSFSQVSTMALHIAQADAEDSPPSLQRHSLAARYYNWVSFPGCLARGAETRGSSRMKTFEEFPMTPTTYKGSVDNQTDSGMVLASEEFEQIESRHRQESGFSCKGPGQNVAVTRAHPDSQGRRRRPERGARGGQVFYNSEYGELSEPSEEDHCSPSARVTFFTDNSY
T7 sequence (P10721 26-976): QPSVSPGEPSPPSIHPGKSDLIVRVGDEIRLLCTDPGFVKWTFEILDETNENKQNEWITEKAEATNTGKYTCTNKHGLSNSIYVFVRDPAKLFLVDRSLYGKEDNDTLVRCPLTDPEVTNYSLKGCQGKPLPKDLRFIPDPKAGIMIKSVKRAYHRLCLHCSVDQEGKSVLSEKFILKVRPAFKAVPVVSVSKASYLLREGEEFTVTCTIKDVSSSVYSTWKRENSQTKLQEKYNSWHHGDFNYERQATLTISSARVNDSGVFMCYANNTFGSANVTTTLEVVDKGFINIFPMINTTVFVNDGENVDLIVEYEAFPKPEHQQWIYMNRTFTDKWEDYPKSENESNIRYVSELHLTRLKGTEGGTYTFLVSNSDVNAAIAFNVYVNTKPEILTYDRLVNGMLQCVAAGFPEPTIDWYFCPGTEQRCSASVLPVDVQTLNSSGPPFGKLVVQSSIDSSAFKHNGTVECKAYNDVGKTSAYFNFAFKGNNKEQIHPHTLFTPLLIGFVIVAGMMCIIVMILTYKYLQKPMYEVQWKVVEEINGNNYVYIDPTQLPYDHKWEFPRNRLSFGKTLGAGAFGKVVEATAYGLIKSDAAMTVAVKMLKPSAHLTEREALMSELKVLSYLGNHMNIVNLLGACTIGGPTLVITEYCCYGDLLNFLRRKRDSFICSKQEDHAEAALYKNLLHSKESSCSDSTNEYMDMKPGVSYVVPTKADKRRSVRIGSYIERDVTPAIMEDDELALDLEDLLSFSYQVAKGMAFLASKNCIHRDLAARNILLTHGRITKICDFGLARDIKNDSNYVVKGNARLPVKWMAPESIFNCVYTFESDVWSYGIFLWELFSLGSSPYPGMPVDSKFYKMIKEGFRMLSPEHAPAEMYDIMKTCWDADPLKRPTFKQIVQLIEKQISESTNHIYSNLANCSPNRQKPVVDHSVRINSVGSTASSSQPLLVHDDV
T3 sequence (P12931 whole entry): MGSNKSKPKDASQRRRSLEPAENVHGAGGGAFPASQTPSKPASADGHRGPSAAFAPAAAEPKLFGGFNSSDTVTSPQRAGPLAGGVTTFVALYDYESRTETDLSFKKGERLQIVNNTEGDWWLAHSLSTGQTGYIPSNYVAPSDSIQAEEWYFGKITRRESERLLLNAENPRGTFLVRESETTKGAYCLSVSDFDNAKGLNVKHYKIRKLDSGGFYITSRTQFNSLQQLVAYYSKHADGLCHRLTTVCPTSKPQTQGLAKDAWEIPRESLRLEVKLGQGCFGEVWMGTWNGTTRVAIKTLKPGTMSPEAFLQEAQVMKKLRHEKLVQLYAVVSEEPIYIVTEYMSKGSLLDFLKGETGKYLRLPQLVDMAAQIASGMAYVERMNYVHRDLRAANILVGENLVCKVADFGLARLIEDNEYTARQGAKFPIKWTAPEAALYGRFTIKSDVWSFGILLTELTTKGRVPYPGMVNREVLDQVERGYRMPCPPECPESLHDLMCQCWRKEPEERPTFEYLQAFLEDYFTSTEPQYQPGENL
T4 sequence (P36888 27-993): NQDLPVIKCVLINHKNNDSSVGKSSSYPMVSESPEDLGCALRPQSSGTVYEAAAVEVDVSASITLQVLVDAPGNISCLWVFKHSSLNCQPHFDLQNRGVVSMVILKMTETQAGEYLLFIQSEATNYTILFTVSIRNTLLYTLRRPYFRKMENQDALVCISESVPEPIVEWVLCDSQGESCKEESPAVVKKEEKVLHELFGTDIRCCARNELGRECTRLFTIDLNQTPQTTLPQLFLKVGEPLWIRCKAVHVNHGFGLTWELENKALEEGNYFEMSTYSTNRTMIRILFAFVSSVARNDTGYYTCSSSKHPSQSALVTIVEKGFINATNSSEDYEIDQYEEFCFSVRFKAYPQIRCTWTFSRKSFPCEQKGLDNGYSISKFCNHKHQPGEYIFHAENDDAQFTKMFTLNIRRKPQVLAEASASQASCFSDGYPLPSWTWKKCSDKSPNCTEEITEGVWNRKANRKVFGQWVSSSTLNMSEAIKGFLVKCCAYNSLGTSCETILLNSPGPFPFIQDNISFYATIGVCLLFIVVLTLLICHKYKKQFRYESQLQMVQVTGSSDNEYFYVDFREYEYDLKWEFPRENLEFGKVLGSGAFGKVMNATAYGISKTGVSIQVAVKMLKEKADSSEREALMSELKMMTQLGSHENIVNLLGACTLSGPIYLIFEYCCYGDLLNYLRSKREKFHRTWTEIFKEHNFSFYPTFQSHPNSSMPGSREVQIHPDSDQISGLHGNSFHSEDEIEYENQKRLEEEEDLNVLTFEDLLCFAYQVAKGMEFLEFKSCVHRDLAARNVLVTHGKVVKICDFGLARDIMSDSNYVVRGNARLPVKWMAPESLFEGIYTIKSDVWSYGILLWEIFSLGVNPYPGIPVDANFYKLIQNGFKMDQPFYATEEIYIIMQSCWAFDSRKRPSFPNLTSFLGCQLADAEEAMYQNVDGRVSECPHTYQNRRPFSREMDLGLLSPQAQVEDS
T14 sequence (Q9HCP0 whole entry): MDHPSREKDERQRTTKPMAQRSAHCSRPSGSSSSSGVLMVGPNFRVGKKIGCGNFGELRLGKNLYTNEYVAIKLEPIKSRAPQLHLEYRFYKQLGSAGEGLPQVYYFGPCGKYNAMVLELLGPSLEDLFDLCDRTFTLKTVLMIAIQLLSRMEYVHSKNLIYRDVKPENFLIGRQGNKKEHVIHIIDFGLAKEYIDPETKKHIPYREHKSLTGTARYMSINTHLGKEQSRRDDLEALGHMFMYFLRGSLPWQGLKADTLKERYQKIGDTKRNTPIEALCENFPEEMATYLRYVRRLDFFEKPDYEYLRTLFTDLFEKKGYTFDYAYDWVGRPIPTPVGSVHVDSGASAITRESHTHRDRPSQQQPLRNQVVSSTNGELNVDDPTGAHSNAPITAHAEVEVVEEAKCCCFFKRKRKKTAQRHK
T11 sequence (P10721 26-976 D816H): as the sequence (P10721 26-976) above, with D791H counted along it

## Brc1ccc(-c2cnc(Nc3cccc4ccccc34)o2)cc1 [AIU2001, 5-(4-bromophenyl)-N-(naphthalen-1-yl) oxazol-2-amine]
FLT4 [1]
  inhibition at 10 µM: ≥ 75%
IGF-1R
  inhibition at 10 µM: 0%
MV4-11 cells
  Phosphorylated STAT5: dose-dependently inhibited phosphorylated STAT5
Molm-13 cells
  Phosphorylated STAT5: dose-dependently inhibited phosphorylated STAT5
cSRC
  inhibition at 10 µM: 22%
FLT3
  IC50: 206 nM
WEE1
  inhibition at 10 µM: 8%
CDK2/cyclinA
  inhibition at 10 µM: 39%
c-KIT [2]
  inhibition at 10 µM: ≥ 75%
TAK1
  inhibition at 10 µM: 15%
FLT4 [3]
  IC50: 786 nM
EGFR(T790M,L858R)
  inhibition at 10 µM: 4%
Met
  inhibition at 10 µM: 1%
c-KIT (D816H)
  inhibition at 10 µM: 48%
ROS
  inhibition at 10 µM: 2%
HIPK2
  inhibition at 10 µM: 0%
CK1γ1
  inhibition at 10 µM: 37%
FGFR1
  inhibition at 10 µM: 1%
PDK1
  inhibition at 10 µM: 19%
c-KIT [4]
  IC50: 223 nM
A549 xenografts
  Average tumor weight at necropsy: 1.2 g
  Body weight versus control mice: did not differ
  Inhibition of tumor growth compared to the vehicle: 48.3%
EPHB4
  inhibition at 10 µM: 10%
ZAP-70
  inhibition at 10 µM: 0%
